ChEMBL document CHEMBL1140070, “Synthesis, structural studies and biological properties of new TBA analogues containing an acyclic nucleotide” (2008)

How the values were obtained:
Plasma [1] = experiment: Anticoagulant potency in citreated human plasma assessed as prolongation of thromboplastin-induced prothrombin time at 2 uM by coagulometer; format: functional
Plasma [2] = experiment: Anticoagulant potency in citreated human plasma assessed as prolongation of thromboplastin-induced prothrombin time at 20 uM by coagulometer; format: functional
[3] = molecular target: Prothrombin (Homo sapiens) (UniProt P00734); experiment: Binding affinity to human thrombin assessed as concentration required to double fibrinogen clotting time by coagulometer

Row | Compound | Activity [3] [nM] | Activity (Plasma [1]) [s] | Activity (Plasma [2]) [s]
1 | Cc1cn(CC(C)(COP(=O)(O)OC[C@H]2O[C@@H](n3cc(C)c(=O)[nH]c3=O)C[C@@H]2OP(=O)(O)OC[C@H]2O[C@@H](n3cnc4c(=O)[nH]c(N)nc43)[C@H](O)[C@@H]2OP(=O)(O)OC[C@H]2O[C@@H](n3cnc4c(=O)[nH]c(N)nc43)[C@H](O)[C@@H]2O)COP(=O)(O)O[C@H]2[C@@H](O)[C@H](n3cnc4c(=O)[nH]c(N)nc43)O[C@@H]2COP(=O)(O)O[C@H]2[C@@H](O)[C@H](n3cnc4c(=O)[nH]c(N)nc43)O[C@@H]2COP(=O)(O)O[C@H]2C[C@H](n3cc(C)c(=O)[nH]c3=O)O[C@@H]2COP(=O)(O)O[C@H]2[C@@H](O)[C@H](n3cnc4c(=O)[nH]c(N)nc43)O[C@@H]2COP(=O)(O)O[C@H]2C[C@H](n3cc(C)c(=O)[nH]c3=O)O[C@@H]2COP(=O)(O)O[C@H]2[C@@H](O)[C@H](n3cnc4c(=O)[nH]c(N)nc43)O[C@@H]2COP(=O)(O)O[C@H]2[C@@H](O)[C@H](n3cnc4c(=O)[nH]c(N)nc43)O[C@@H]2COP(=O)(O)O[C@H]2C[C@H](n3cc(C)c(=O)[nH]c3=O)O[C@@H]2COP(=O)(O)O[C@H]2C[C@H](n3cc(C)c(=O)[nH]c3=O)O[C@@H]2COP(=O)(O)O[C@H]2[C@@H](O)[C@H](n3cnc4c(=O)[nH]c(N)nc43)O[C@@H]2COP(=O)(O)O[C@H]2[C@@H](O)[C@H](n3cnc4c(=O)[nH]c(N)nc43)O[C@@H]2CO)c(=O)[nH]c1=O (stereo partly specified) | 78 | 18.07 | 44.83
2 | Cc1cn(CC(C)(COP(=O)(O)OC[C@H]2O[C@@H](n3cnc4c(=O)[nH]c(N)nc43)[C@H](O)[C@@H]2OP(=O)(O)OC[C@H]2O[C@@H](n3cc(C)c(=O)[nH]c3=O)C[C@@H]2OP(=O)(O)OC[C@H]2O[C@@H](n3cnc4c(=O)[nH]c(N)nc43)[C@H](O)[C@@H]2OP(=O)(O)OC[C@H]2O[C@@H](n3cnc4c(=O)[nH]c(N)nc43)[C@H](O)[C@@H]2OP(=O)(O)OC[C@H]2O[C@@H](n3cc(C)c(=O)[nH]c3=O)C[C@@H]2OP(=O)(O)OC[C@H]2O[C@@H](n3cc(C)c(=O)[nH]c3=O)C[C@@H]2OP(=O)(O)OC[C@H]2O[C@@H](n3cnc4c(=O)[nH]c(N)nc43)[C@H](O)[C@@H]2OP(=O)(O)OC[C@H]2O[C@@H](n3cnc4c(=O)[nH]c(N)nc43)[C@H](O)[C@@H]2O)COP(=O)(O)O[C@H]2[C@@H](O)[C@H](n3cnc4c(=O)[nH]c(N)nc43)O[C@@H]2COP(=O)(O)O[C@H]2[C@@H](O)[C@H](n3cnc4c(=O)[nH]c(N)nc43)O[C@@H]2COP(=O)(O)O[C@H]2C[C@H](n3cc(C)c(=O)[nH]c3=O)O[C@@H]2COP(=O)(O)O[C@H]2C[C@H](n3cc(C)c(=O)[nH]c3=O)O[C@@H]2COP(=O)(O)O[C@H]2[C@@H](O)[C@H](n3cnc4c(=O)[nH]c(N)nc43)O[C@@H]2COP(=O)(O)O[C@H]2[C@@H](O)[C@H](n3cnc4c(=O)[nH]c(N)nc43)O[C@@H]2CO)c(=O)[nH]c1=O (stereo partly specified) | 70 | 24.67 | 60.2
3 | Cc1cn([C@H]2C[C@H](OP(=O)(O)OC[C@H]3O[C@@H](n4cnc5c(=O)[nH]c(N)nc54)[C@H](O)[C@@H]3OP(=O)(O)OC[C@H]3O[C@@H](n4cnc5c(=O)[nH]c(N)nc54)[C@H](O)[C@@H]3OP(=O)(O)OC[C@H]3O[C@@H](n4cc(C)c(=O)[nH]c4=O)C[C@@H]3OP(=O)(O)OC[C@H]3O[C@@H](n4cc(C)c(=O)[nH]c4=O)C[C@@H]3OP(=O)(O)OC[C@H]3O[C@@H](n4cnc5c(=O)[nH]c(N)nc54)[C@H](O)[C@@H]3OP(=O)(O)OC[C@H]3O[C@@H](n4cnc5c(=O)[nH]c(N)nc54)[C@H](O)[C@@H]3O)[C@@H](COP(=O)(O)O[C@H]3[C@@H](O)[C@H](n4cnc5c(=O)[nH]c(N)nc54)O[C@@H]3COP(=O)(O)O[C@H]3C[C@H](n4cc(C)c(=O)[nH]c4=O)O[C@@H]3COP(=O)(O)O[C@H]3[C@@H](O)[C@H](n4cnc5c(=O)[nH]c(N)nc54)O[C@@H]3COP(=O)(O)O[C@H]3[C@@H](O)[C@H](n4cnc5c(=O)[nH]c(N)nc54)O[C@@H]3COP(=O)(O)O[C@H]3C[C@H](n4cc(C)c(=O)[nH]c4=O)O[C@@H]3COP(=O)(O)O[C@H]3C[C@H](n4cc(C)c(=O)[nH]c4=O)O[C@@H]3COP(=O)(O)O[C@H]3[C@@H](O)[C@H](n4cnc5c(=O)[nH]c(N)nc54)O[C@@H]3COP(=O)(O)O[C@H]3[C@@H](O)[C@H](n4cnc5c(=O)[nH]c(N)nc54)O[C@@H]3CO)O2)c(=O)[nH]c1=O [THROMBIN APTAMER] | 175 | 22.6 | 53.68
4 | Cc1cn(CC(C)(COP(=O)(O)OC[C@H]2O[C@@H](n3cc(C)c(=O)[nH]c3=O)C[C@@H]2OP(=O)(O)OC[C@H]2O[C@@H](n3cnc4c(=O)[nH]c(N)nc43)[C@H](O)[C@@H]2OP(=O)(O)OC[C@H]2O[C@@H](n3cnc4c(=O)[nH]c(N)nc43)[C@H](O)[C@@H]2OP(=O)(O)OC[C@H]2O[C@@H](n3cc(C)c(=O)[nH]c3=O)C[C@@H]2OP(=O)(O)OC[C@H]2O[C@@H](n3cnc4c(=O)[nH]c(N)nc43)[C@H](O)[C@@H]2OP(=O)(O)OC[C@H]2O[C@@H](n3cc(C)c(=O)[nH]c3=O)C[C@@H]2OP(=O)(O)OC[C@H]2O[C@@H](n3cnc4c(=O)[nH]c(N)nc43)[C@H](O)[C@@H]2OP(=O)(O)OC[C@H]2O[C@@H](n3cnc4c(=O)[nH]c(N)nc43)[C@H](O)[C@@H]2OP(=O)(O)OC[C@H]2O[C@@H](n3cc(C)c(=O)[nH]c3=O)C[C@@H]2OP(=O)(O)OC[C@H]2O[C@@H](n3cc(C)c(=O)[nH]c3=O)C[C@@H]2OP(=O)(O)OC[C@H]2O[C@@H](n3cnc4c(=O)[nH]c(N)nc43)[C@H](O)[C@@H]2OP(=O)(O)OC[C@H]2O[C@@H](n3cnc4c(=O)[nH]c(N)nc43)[C@H](O)[C@@H]2O)COP(=O)(O)O[C@H]2[C@@H](O)[C@H](n3cnc4c(=O)[nH]c(N)nc43)O[C@@H]2COP(=O)(O)O[C@H]2[C@@H](O)[C@H](n3cnc4c(=O)[nH]c(N)nc43)O[C@@H]2CO)c(=O)[nH]c1=O (stereo partly specified) | 238 | 14.3 | 35.15

Continued, in another order:

Row | Activity [3] [nM] | Compound | Activity (Plasma [1]) [s] | Activity (Plasma [2]) [s]
5 | 100 | Cc1cn(CC(C)(COP(=O)(O)OC[C@H]2O[C@@H](n3cnc4c(=O)[nH]c(N)nc43)[C@H](O)[C@@H]2OP(=O)(O)OC[C@H]2O[C@@H](n3cnc4c(=O)[nH]c(N)nc43)[C@H](O)[C@@H]2O)COP(=O)(O)O[C@H]2C[C@H](n3cc(C)c(=O)[nH]c3=O)O[C@@H]2COP(=O)(O)O[C@H]2[C@@H](O)[C@H](n3cnc4c(=O)[nH]c(N)nc43)O[C@@H]2COP(=O)(O)O[C@H]2[C@@H](O)[C@H](n3cnc4c(=O)[nH]c(N)nc43)O[C@@H]2COP(=O)(O)O[C@H]2C[C@H](n3cc(C)c(=O)[nH]c3=O)O[C@@H]2COP(=O)(O)O[C@H]2[C@@H](O)[C@H](n3cnc4c(=O)[nH]c(N)nc43)O[C@@H]2COP(=O)(O)O[C@H]2C[C@H](n3cc(C)c(=O)[nH]c3=O)O[C@@H]2COP(=O)(O)O[C@H]2[C@@H](O)[C@H](n3cnc4c(=O)[nH]c(N)nc43)O[C@@H]2COP(=O)(O)O[C@H]2[C@@H](O)[C@H](n3cnc4c(=O)[nH]c(N)nc43)O[C@@H]2COP(=O)(O)O[C@H]2C[C@H](n3cc(C)c(=O)[nH]c3=O)O[C@@H]2COP(=O)(O)O[C@H]2C[C@H](n3cc(C)c(=O)[nH]c3=O)O[C@@H]2COP(=O)(O)O[C@H]2[C@@H](O)[C@H](n3cnc4c(=O)[nH]c(N)nc43)O[C@@H]2COP(=O)(O)O[C@H]2[C@@H](O)[C@H](n3cnc4c(=O)[nH]c(N)nc43)O[C@@H]2CO)c(=O)[nH]c1=O (stereo partly specified) | 17.5 | 46.97
6 | 210 | Cc1cn(CC(C)(COP(=O)(O)OC[C@H]2O[C@@H](n3cnc4c(=O)[nH]c(N)nc43)[C@H](O)[C@@H]2OP(=O)(O)OC[C@H]2O[C@@H](n3cnc4c(=O)[nH]c(N)nc43)[C@H](O)[C@@H]2OP(=O)(O)OC[C@H]2O[C@@H](n3cc(C)c(=O)[nH]c3=O)C[C@@H]2OP(=O)(O)OC[C@H]2O[C@@H](n3cc(C)c(=O)[nH]c3=O)C[C@@H]2OP(=O)(O)OC[C@H]2O[C@@H](n3cnc4c(=O)[nH]c(N)nc43)[C@H](O)[C@@H]2OP(=O)(O)OC[C@H]2O[C@@H](n3cnc4c(=O)[nH]c(N)nc43)[C@H](O)[C@@H]2O)COP(=O)(O)O[C@H]2[C@@H](O)[C@H](n3cnc4c(=O)[nH]c(N)nc43)O[C@@H]2COP(=O)(O)O[C@H]2C[C@H](n3cc(C)c(=O)[nH]c3=O)O[C@@H]2COP(=O)(O)O[C@H]2[C@@H](O)[C@H](n3cnc4c(=O)[nH]c(N)nc43)O[C@@H]2COP(=O)(O)O[C@H]2[C@@H](O)[C@H](n3cnc4c(=O)[nH]c(N)nc43)O[C@@H]2COP(=O)(O)O[C@H]2C[C@H](n3cc(C)c(=O)[nH]c3=O)O[C@@H]2COP(=O)(O)O[C@H]2C[C@H](n3cc(C)c(=O)[nH]c3=O)O[C@@H]2COP(=O)(O)O[C@H]2[C@@H](O)[C@H](n3cnc4c(=O)[nH]c(N)nc43)O[C@@H]2COP(=O)(O)O[C@H]2[C@@H](O)[C@H](n3cnc4c(=O)[nH]c(N)nc43)O[C@@H]2CO)c(=O)[nH]c1=O (stereo partly specified) | 13.23 | 34.65
7 | 250 | Cc1cn(CC(C)(COP(=O)(O)OC[C@H]2O[C@@H](n3cnc4c(=O)[nH]c(N)nc43)[C@H](O)[C@@H]2OP(=O)(O)OC[C@H]2O[C@@H](n3cnc4c(=O)[nH]c(N)nc43)[C@H](O)[C@@H]2OP(=O)(O)OC[C@H]2O[C@@H](n3cc(C)c(=O)[nH]c3=O)C[C@@H]2OP(=O)(O)OC[C@H]2O[C@@H](n3cnc4c(=O)[nH]c(N)nc43)[C@H](O)[C@@H]2OP(=O)(O)OC[C@H]2O[C@@H](n3cc(C)c(=O)[nH]c3=O)C[C@@H]2OP(=O)(O)OC[C@H]2O[C@@H](n3cnc4c(=O)[nH]c(N)nc43)[C@H](O)[C@@H]2OP(=O)(O)OC[C@H]2O[C@@H](n3cnc4c(=O)[nH]c(N)nc43)[C@H](O)[C@@H]2OP(=O)(O)OC[C@H]2O[C@@H](n3cc(C)c(=O)[nH]c3=O)C[C@@H]2OP(=O)(O)OC[C@H]2O[C@@H](n3cc(C)c(=O)[nH]c3=O)C[C@@H]2OP(=O)(O)OC[C@H]2O[C@@H](n3cnc4c(=O)[nH]c(N)nc43)[C@H](O)[C@@H]2OP(=O)(O)OC[C@H]2O[C@@H](n3cnc4c(=O)[nH]c(N)nc43)[C@H](O)[C@@H]2O)COP(=O)(O)O[C@H]2C[C@H](n3cc(C)c(=O)[nH]c3=O)O[C@@H]2COP(=O)(O)O[C@H]2[C@@H](O)[C@H](n3cnc4c(=O)[nH]c(N)nc43)O[C@@H]2COP(=O)(O)O[C@H]2[C@@H](O)[C@H](n3cnc4c(=O)[nH]c(N)nc43)O[C@@H]2CO)c(=O)[nH]c1=O (stereo partly specified) | 14.5 | 32.28
